US20260337156A1, “SOLUBILIZING COMPOUNDS” (Vivesto AB, priority 2022, published 2026)

Assay: particle size and polydispersity index of drug micelles over time (ZetaSizer)
Format: physicochemical
Details: for change of particle size and polydispersity index over time: 0-24 h
Protocol: Micellar size was measured using a ZetaSizer from Malvern Panalytical.
(§1) A stock solution of docetaxel in methanol was mixed with a stock solution of compound 1 in a round bottom flask. The mixture was evaporated to dryness in a rotary evaporator. Final drying was performed in a desiccator to remove residual solvent. Hydration of the dried film was performed by adding water for injection (1.0 mL) to a concentration of 1 mg/mL of docetaxel. The resulting solution was filtered through a 0.22 μm sterile filter and further diluted with 0.9% sodium chloride solution to 0.5 mg/mL of docetaxel. […]
(§2) A stock solution of cyclosporin in methanol was mixed with a stock solution of compound 1 in a round bottom flask. The mixture was evaporated to dryness in a rotary evaporator. Final drying was performed in a desiccator to remove residual solvent. Hydration of the dried film was performed by adding water for injection (1.0 mL) to a concentration of 1 mg/mL of cyclosporin. The resulting solution was filtered through a 0.22 μm sterile filter and further diluted with 0.9% sodium chloride solution to 0.5 mg/mL of cyclosporin. The final weight ratio of cyclosporin to micelle forming agent was 1:3.
(§3) A stock solution of docetaxel in methanol was mixed with a stock solution of compound 3 in a round bottom flask. The mixture was evaporated to dryness in a rotary evaporator. Final drying was performed in a desiccator to remove residual solvent. Hydration of the dried film was performed by adding water for injection (1.0 mL) to a concentration of 1 mg/mL of docetaxel. The resulting solution was filtered through a 0.22 μm sterile filter and further diluted with 0.9% sodium chloride solution to 0.5 mg/mL of Docetaxel. The final weight ratio of docetaxel to micelle forming agent was 1:3.
as §2, with “compound 3” for “compound 1”
as §1, with “compound 4” for “compound 1”
as §3, with “compound 5” for “compound 3”, “of docetaxel.” for “of Docetaxel.”
A stock solution of cabazitaxel in methanol was mixed with a stock solution of compound 5 in a round bottom flask. The mixture was evaporated to dryness in a rotary evaporator. Final drying was performed in a desiccator to remove residual solvent. Hydration of the dried film was performed by adding water for injection (1.0 mL) to a concentration of 1 mg/mL of cabazitaxel. […]

[1] = cabazitaxel:compound 1:3, cabazitaxel 0.5 mg/mL, time 0 h
[2] = cabazitaxel:compound 1:3, cabazitaxel 0.5 mg/mL, time 1 h
[3] = cabazitaxel:compound 1:3, cabazitaxel 0.5 mg/mL, time 2 h
[4] = cabazitaxel:compound 1:3, cabazitaxel 0.5 mg/mL, time 4 h
[5] = cabazitaxel:compound 1:3, cabazitaxel 0.5 mg/mL, time 6 h
[6] = cabazitaxel:compound 1:3, cabazitaxel 0.5 mg/mL, time 24 h
[7] = docetaxel:compound 1:3, docetaxel 0.5 mg/mL
[8] = docetaxel:compound 1:3, docetaxel 0.5 mg/mL, time 0 h
[9] = docetaxel:compound 1:3, docetaxel 0.5 mg/mL, time 1 h
[10] = docetaxel:compound 1:3, docetaxel 0.5 mg/mL, time 2 h
[11] = docetaxel:compound 1:3, docetaxel 0.5 mg/mL, time 4 h
[12] = docetaxel:compound 1:3, docetaxel 0.5 mg/mL, time 6 h
[13] = docetaxel:compound 1:3, docetaxel 0.5 mg/mL, time 24 h
[14] = docetaxel:compound 1:5, docetaxel 0.5 mg/mL, time 0 h
[15] = docetaxel:compound 1:5, docetaxel 0.5 mg/mL, time 1 h
[16] = docetaxel:compound 1:5, docetaxel 0.5 mg/mL, time 2 h
[17] = docetaxel:compound 1:5, docetaxel 0.5 mg/mL, time 4 h
[18] = docetaxel:compound 1:5, docetaxel 0.5 mg/mL, time 6 h
[19] = docetaxel:compound 1:5, docetaxel 0.5 mg/mL, time 24 h

Particle size [8] [nm] | Polydispersity index [8] | Particle size [9] [nm] | Polydispersity index [9] | Particle size [10] [nm] | Polydispersity index [10] | Particle size [11] [nm] | Polydispersity index [11] | Particle size [12] [nm] | Polydispersity index [12] | Particle size [13] [nm] | Polydispersity index [13] | SMILES | change of particle size and polydispersity index over time [7] | other results
59.40 | 0.17 | 66.24 | 0.16 | 75.40 | 0.14 | 82.19 | 0.13 | 87.95 | 0.13 | 105.7 | 0.14 | COc1cc(C)c(/C=C/C(C)=C/C=C/C(C)=C/C(=O)N(CCS(=O)(=O)[O-])CC(N)=O)c(C)c1C.[Na+] [Compound 5] | An increase in the particle size and very small variations of the polydispersity index over time were noted | change of particle size and polydispersity index over time (cabazitaxel:compound 1:3, cabazitaxel 0.5 mg/mL): Small variations in the particle size and the polydispersity index over time were noted; Particle size [1]: 93.83 nm; Polydispersity index [1]: 0.19; Particle size [2]: 98.08 nm; Polydispersity index [2]: 0.20; Particle size [3]: 102.2 nm; Polydispersity index [3]: 0.21; Particle size [4]: 106.6 nm; Polydispersity index [4]: 0.20; Particle size [5]: 108.8 nm; Polydispersity index [5]: 0.21; Particle size [6]: 83.42 nm; Polydispersity index [6]: 0.39
– | – | – | – | – | – | – | – | – | – | – | – | COc1cc(C)c(/C=C/C(C)=C/C=C/C(C)=C/C(=O)N(CCO)Cc2ccc(N)cc2S(=O)(=O)[O-])c(C)c1C.[Na+] [Compound 10] | – | change of particle size and polydispersity index over time (docetaxel:compound 1:5, docetaxel 0.5 mg/mL): Increase in the particle size and minor decrease the polydispersity index over time were noted; Particle size [14]: 52.29 nm; Polydispersity index [14]: 0.16; Particle size [15]: 62.51 nm; Polydispersity index [15]: 0.13; Particle size [16]: 70.07 nm; Polydispersity index [16]: 0.12; Particle size [17]: 78.98 nm; Polydispersity index [17]: 0.12; Particle size [18]: 85.10 nm; Polydispersity index [18]: 0.10; Particle size [19]: 107.4 nm; Polydispersity index [19]: 0.10
55.38 | 0.20 | 70.34 | 0.15 | 75.90 | 0.13 | 83.10 | 0.11 | 87.94 | 0.12 | 105.0 | 0.16 | COc1cc(C)c(/C=C/C(C)=C/C=C/C(C)=C/C(=O)N2CCC(CCS(=O)(=O)[O-])CC2)c(C)c1C.[Na+] [Compound 8] | Increase in the particle size and small variations the polydispersity index over time were noted | –
100.8 | 0.23 | 97.60 | 0.24 | 97.60 | 0.24 | 96.90 | 0.25 | 99.12 | 0.25 | 96.76 | 0.26 | COc1cc(C)c(/C=C/C(C)=C/C=C/C(C)=C/C(=O)N(C)[C@H]2CC[C@H](CS(=O)(=O)[O-])CC2)c(C)c1C.[Na+] [Compound 7] | Small variations in the particle size and the polydispersity index over time were noted | –
89.91 | 0.20 | 97.93 | 0.20 | 103.8 | 0.20 | 113.0 | 0.17 | 118.6 | 0.17 | 122.0 | 0.22 | COc1cc(C)c(/C=C/C(C)=C/C=C/C(C)=C/C(=O)N2CCN(C(=O)c3ccc(S(=O)(=O)[O-])cc3)CC2)c(C)c1C.[K+] [Compound 9] | Increase in the particle size and small variations the polydispersity index over time were noted | –
61.37 | 0.22 | 61.27 | 0.28 | 64.21 | 0.28 | 67.34 | 0.28 | 69.84 | 0.28 | 66.18 | 0.38 | COc1cc(C)c(/C=C/C(C)=C/C=C/C(C)=C/C(=O)N2CCN(c3ccc(S(=O)(=O)[O-])cc3)CC2)c(C)c1C.[Na+] [Compound 6] | Small variations in the particle size and the polydispersity index over time were noted | –
